Reference: US20260092071A1, “COMPOUNDS AND COMPOSITIONS AS SMARCA2/4 DEGRADERS AND USES THEREOF” (REGENTS OF THE UNIVERSITY OF MICHIGAN, priority 2022, published 2026)

Columns and labels:
[1] = biological target: SMARCA2 (Homo sapiens, UniProt P51531); assay: HiBit assay in engineered HT1080 CRISPR knock-in cell, 6 hrs (B series), SMARCA2; type: cell-based; conditions: 6 hrs incubation; for DC50: HT1080 CRISPR knock-in cells, read-out: SMARC A2 HT1080 HiBit DC50; for Dmax: HT-1080, HT1080 CRISPR knock-in cells, read-out: SMARC A2 HT1080 HiBit Dmax (%)
Sequence of SMARCA2 (P51531 whole entry): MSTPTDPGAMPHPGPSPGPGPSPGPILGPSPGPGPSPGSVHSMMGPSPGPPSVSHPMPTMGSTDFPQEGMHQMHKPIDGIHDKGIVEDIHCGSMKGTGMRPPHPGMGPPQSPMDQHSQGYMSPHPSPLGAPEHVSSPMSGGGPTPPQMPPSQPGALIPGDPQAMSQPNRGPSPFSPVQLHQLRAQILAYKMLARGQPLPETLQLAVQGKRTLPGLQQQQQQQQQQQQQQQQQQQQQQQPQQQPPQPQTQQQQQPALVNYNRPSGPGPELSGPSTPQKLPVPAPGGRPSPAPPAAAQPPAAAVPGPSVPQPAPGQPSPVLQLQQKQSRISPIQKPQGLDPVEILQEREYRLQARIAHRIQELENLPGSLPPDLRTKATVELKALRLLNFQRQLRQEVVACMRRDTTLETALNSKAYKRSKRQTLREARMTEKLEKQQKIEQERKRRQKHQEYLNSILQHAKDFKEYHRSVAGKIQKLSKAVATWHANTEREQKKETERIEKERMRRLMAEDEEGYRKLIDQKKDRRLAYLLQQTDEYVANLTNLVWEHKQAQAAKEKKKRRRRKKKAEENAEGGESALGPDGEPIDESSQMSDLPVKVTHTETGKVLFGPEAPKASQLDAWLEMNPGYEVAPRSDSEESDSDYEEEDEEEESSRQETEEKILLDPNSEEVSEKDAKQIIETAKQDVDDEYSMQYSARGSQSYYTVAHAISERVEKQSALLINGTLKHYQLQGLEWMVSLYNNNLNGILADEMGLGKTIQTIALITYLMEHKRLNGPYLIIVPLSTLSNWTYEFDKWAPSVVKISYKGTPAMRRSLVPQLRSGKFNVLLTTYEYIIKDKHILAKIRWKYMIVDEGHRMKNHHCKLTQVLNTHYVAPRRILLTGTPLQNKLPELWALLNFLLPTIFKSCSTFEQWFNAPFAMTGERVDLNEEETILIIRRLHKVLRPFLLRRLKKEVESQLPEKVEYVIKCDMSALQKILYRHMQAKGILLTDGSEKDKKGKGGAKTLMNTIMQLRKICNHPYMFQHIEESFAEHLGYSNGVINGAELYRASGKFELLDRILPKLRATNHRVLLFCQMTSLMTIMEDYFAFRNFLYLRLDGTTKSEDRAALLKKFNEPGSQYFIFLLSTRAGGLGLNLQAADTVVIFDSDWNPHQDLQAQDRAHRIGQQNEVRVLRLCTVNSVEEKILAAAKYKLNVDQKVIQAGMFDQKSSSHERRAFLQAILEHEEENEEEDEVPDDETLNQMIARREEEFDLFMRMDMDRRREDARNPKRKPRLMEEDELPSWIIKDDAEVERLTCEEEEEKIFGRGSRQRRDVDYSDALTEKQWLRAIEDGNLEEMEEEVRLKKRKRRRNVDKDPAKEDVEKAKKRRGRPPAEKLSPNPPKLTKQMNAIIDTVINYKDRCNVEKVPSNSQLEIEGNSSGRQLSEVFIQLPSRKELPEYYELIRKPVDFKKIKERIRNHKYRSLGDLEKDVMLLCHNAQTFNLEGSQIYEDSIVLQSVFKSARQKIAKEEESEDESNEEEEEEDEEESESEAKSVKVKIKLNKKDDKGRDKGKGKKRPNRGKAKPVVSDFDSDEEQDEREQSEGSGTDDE
Outline: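 HT1080 CRISPR knock-in cells carrying HiBiT-tagged SMARCA2 seeded onto compound (0.1% DMSO) at 2000 cells/well. Incubated 6 h at 37 °C, 5% CO2, then lysed with Nano-Glo HiBiT lytic reagent containing LgBiT, and luminescence read.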

[2] = biological target: SMARCA4 (Homo sapiens, UniProt P51532); assay: HiBit assay in engineered HT1080 CRISPR knock-in cell, 6 hrs (B series), SMARCA4; type: cell-based; conditions: 6 hrs incubation; for DC50: HT1080 CRISPR knock-in cells, read-out: SMARC A4 HT1080 HiBit DC50; for Dmax: HT-1080, HT1080 CRISPR knock-in cells, read-out: SMARC A4 HT1080 HiBit Dmax(%)
Sequence of SMARCA4 (P51532 whole entry): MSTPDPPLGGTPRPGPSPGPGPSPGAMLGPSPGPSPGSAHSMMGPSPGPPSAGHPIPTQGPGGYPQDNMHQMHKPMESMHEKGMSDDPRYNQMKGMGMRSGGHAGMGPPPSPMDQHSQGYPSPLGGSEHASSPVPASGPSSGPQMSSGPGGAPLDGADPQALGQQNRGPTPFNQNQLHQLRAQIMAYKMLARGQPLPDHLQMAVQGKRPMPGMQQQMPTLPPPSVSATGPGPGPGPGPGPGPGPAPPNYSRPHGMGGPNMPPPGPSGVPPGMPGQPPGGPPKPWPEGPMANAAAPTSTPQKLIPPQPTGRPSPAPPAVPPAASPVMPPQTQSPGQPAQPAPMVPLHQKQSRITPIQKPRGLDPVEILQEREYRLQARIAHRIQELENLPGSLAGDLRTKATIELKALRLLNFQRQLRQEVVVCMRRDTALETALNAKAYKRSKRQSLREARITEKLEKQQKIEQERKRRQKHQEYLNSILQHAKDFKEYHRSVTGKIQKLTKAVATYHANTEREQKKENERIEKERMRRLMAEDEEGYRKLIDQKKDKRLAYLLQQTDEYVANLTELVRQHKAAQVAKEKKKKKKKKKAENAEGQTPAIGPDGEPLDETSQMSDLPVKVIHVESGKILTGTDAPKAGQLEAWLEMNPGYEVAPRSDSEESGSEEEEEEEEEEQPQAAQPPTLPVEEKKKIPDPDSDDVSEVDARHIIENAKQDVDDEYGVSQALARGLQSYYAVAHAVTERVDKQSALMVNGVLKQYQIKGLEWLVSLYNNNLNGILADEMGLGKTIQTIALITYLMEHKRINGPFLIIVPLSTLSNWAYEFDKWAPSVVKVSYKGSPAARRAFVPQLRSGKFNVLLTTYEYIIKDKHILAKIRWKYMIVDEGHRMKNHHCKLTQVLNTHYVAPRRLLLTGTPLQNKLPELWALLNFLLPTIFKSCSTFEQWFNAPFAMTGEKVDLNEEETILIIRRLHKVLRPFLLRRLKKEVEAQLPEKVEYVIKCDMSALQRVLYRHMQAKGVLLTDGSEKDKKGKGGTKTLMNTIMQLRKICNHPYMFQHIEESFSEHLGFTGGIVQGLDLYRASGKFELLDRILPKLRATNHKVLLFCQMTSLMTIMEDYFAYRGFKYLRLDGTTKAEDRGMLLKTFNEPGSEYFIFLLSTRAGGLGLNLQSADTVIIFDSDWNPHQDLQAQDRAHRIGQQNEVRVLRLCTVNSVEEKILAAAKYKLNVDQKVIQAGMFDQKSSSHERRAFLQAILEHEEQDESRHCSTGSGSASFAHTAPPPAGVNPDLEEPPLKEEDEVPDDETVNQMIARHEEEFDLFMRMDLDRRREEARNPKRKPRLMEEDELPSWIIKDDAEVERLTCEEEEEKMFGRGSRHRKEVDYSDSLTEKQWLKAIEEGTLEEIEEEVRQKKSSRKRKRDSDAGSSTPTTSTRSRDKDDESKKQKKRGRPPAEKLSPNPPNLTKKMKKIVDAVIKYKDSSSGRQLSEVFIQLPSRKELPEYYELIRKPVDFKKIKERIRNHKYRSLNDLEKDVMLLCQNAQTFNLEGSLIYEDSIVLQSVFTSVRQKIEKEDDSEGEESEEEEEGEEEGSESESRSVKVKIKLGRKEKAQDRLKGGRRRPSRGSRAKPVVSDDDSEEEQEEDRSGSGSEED
Outline: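 HT1080 CRISPR knock-in cells carrying the HiBiT tag were seeded onto compounds (final DMSO 0.1%) and incubated 6 hrs at 37° C, 5% CO2. Remaining tagged protein was detected by lytic HiBiT luminescence after adding LgBiT protein and substrate, with LgBiT-free wells serving as negative control.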

Compound C#Cc1ccc([C@H](CN2CCOCC2)NC(=O)[C@@H]2C[C@@H](O)CN2C(=O)[C@@H](n2cc([C@H]3CC[C@H](CN4CCC(c5ccc6c(c5)-n5c(nc(=O)c7c(Cl)cccc75)C6(C)C)CC4)CC3)nn2)C(C)(C)C)cc1 [Compound B102, (2S,4R)-1-((S)-2-(4-((1r,4S)-4-((4-(4-chloro-7,7-dimethyl-5-oxo-5,7-dihydroindolo[1,2-a]quinazolin-10-yl)piperidin-1-yl)methyl)cyclohexyl)-1H-1,2,3-triazol-1-yl)-3,3-dimethylbutanoyl)-N—((R)-1-(4-ethynylphenyl)-2-morpholinoethyl)-4-hydroxypyrrolidine-2-carboxamide] has a DC50 [1] of under 100 nM, a Dmax [1] of over 90% and a DC50 [2] of under 100 nM. For the same compound, the Dmax [2] was 70 to 90%.
Cc1cc(C(C(=O)N2C[C@H](O)C[C@H]2C(=O)N[C@@H](C)c2ccc(-c3scnc3C#CCOCCCN3CCC(c4ccc5c(c4)-n4c(nc(=O)c6c(Cl)cccc64)C5(C)C)CC3)cc2)C(C)C)on1 (stereo partly drawn) [Compound B103, (2S,4R)-N-((S)-1-(4-(4-(3-(3-(4-(4-chloro-7,7-dimethyl-5-oxo-5,7-dihydroindolo[1,2-a]quinazolin-10-yl)piperidin-1-yl)propoxy)prop-1-yn-1-yl)thiazol-5-yl)phenyl)ethyl)-4-hydroxy-1-(3-methyl-2-(3-methylisoxazol-5-yl)butanoyl)pyrrolidine-2-carboxamide] was tested, and the DC50 [1] was under 100 nM, the Dmax [1] was over 90% and the DC50 [2] was under 100 nM. The Dmax [2] was over 90%.
Cc1cc(C(C(=O)N2C[C@H](O)C[C@H]2C(=O)N[C@@H](C)c2ccc(-c3scnc3C#CCOCCOCCN3CCC(c4ccc5c(c4)-n4c(nc(=O)c6c(Cl)cccc64)C5(C)C)CC3)cc2)C(C)C)on1 (stereo partly drawn) [Compound B104, (2S,4R)—N—((S)-1-(4-(4-(3-(2-(2-(4-(4-chloro-7,7-dimethyl-5-oxo-5,7-dihydroindolo[1,2-a]quinazolin-10-yl)piperidin-1-yl)ethoxy)ethoxy)prop-1-yn-1-yl)thiazol-5-yl)phenyl)ethyl)-4-hydroxy-1-(3-methyl-2-(3-methylisoxazol-5-yl)butanoyl)pyrrolidine-2-carboxamide] gave a DC50 [1] of under 100 nM, a Dmax [1] of over 90% and a DC50 [2] of 100 to 500 nM. The Dmax [2] was 70 to 90%.
Compound Cc1ncsc1-c1ccc([C@H](CN2CCOCC2)NC(=O)[C@@H]2C[C@@H](O)CN2C(=O)[C@@H](n2cc([C@H]3CC[C@H](CN4CCC(c5ccc6c(c5)-n5c(nc(=O)c7c(Br)cccc75)C6(C)C)CC4)CC3)nn2)C(C)(C)C)cc1 [Compound B105, (2S,4R)-1-((S)-2-(4-((1r,4S)-4-((4-(4-bromo-7,7-dimethyl-5-oxo-5,7-dihydroindolo[1,2-a]quinazolin-10-yl)piperidin-1-yl)methyl)cyclohexyl)-1H-1,2,3-triazol-1-yl)-3,3-dimethylbutanoyl)-4-hydroxy-N—((R)-1-(4-(4-methylthiazol-5-yl)phenyl)-2-morpholinoethyl)pyrrolidine-2-carboxamide] has a DC50 [1] of under 100 nM, a Dmax [1] of over 90% and a DC50 [2] of 100 to 500 nM. The Dmax [2] was 70 to 90%.
Cc1ncsc1-c1ccc([C@H](CN2CCOCC2)NC(=O)[C@@H]2C[C@@H](O)CN2C(=O)[C@H](C(C)C)n2cc([C@H]3CC[C@H](CN4CCC(c5ccc6c(c5)-n5c(nc(=O)c7c(Br)cccc75)C65CCCCC5)CC4)CC3)nn2)cc1 [Compound B106, (2S,4R)-1-((S)-2-(4-((1r,4S)-4-((4-(4′-bromo-5′-oxo-5′H-spiro[cyclohexane-1,7′-indolo[1,2-a]quinazolin]-10′-yl)piperidin-1-yl)methyl)cyclohexyl)-1H-1,2,3-triazol-1-yl)-3-methylbutanoyl)-4-hydroxy-N-((R)-1-(4-(4-methylthiazol-5-yl)phenyl)-2-morpholinoethyl)pyrrolidine-2-carboxamide] showed a DC50 [1] of under 100 nM, a Dmax [1] of over 90% and a DC50 [2] of under 100 nM. The Dmax [2] was over 90%.
